Test results taken from patent US7144706B2, “Methods of modulating localization and physiological function of IP3 receptors” (Duke University, priority 2002, dated 2006).
Entries after “also recorded” stand apart in the source; their conditions may differ. Blank lines part the entries; values can stand above or below the compound they belong to. Where no end group is shown, it is not given here.

Assays:
[1] = system: wildtype and ankyrin-B (+/−) mice; assay: Heart rate by ECG radiotelemetry in conscious mice after drug injection; format: in vivo, mouse; conditions: for heart rate response to endothelin-1: 300 ng/kg
Protocol: (§1) EKG recordings. EKG recordings were obtained using a radiotelemetry apparatus (DSI). Transmitters were implanted and the mice recovered for 5 days prior to recordings. EKG traces were analyzed using Data Quest analysis software 2.1 (DSI). P wave duration, PR interval, RR interval, QRS interval and QT interval were all calculated according to established methods. The rate corrected QT interval (QTc) was calculated from the relationship QTc=QT/(RR)^1/2 Following a 15-hour fast, blood glucose levels were measured (OneTouch Ultra; Lifescan) before and up to 120 min after an intraperitoneal injection of either PBS, glucose (2 g/kg) or insulin (5 units/kg; Eli Lilly) (Ludwig et al, J. Clin. Invest. 107:379–386 (2001)).
To test ankyrin-B heterozygous mice for potential defects in Gαq signaling, ECG radiotransmitter implants were implanted in the abdomen of ankyrin-B (+/−) mice as well as wildtype littermate controls. These probes allow the recording of real time ECG and thus heart rate recordings in conscious, non-anethestized mice. 24 hour recordings of wildtype mice compared to heterozygote animals show overall bradycardia in the heterozygote (FIG. 9).

AnkB+/− and +/+ mice = system: AnkB+/− and +/+ mice
Description: Sudden cardiac death in humans with the E1425G mutation occurred secondary to physical exertion and emotional stress (FIG. 28)3. An attempt was made to mimic these circumstances in mice with exercise followed by injection with epinephrine.

Na/K ATPase = assay: [3H]ouabain binding to adult cardiac microsomes; set-up: species or system mouse
Description: Na/K ATPase, Na/Ca exchanger (NCX) and IP3R are candidate ankyrin-binding proteins based on biochemical data (Bennett et al, Physiol. Rev. 81:1353 (2001)) that are localized at T-tubules (Frank et al, in The Myocardium (ed. Langer, G A) 1–32 (Academic Press, San Diego, Calif., 1997)). Ankyrin-B co-immunoprecipitates with NCX1, α1 and α2 ATPase, and IP3R from extracts of heart tissue (FIG. 30B), but not with other cardiomyocyte proteins (including DHPR, SERCA2, and calsequestrin). Levels of IP3R (pan IP3R), α1 and α2 Na/K ATPase subunits, and NCX in isolated adult cardiomyocytes are reduced by 15–33% in AnkB+/− cardiomyocytes by immunoblots (FIG. 30C). Measurements of binding of [^3H] […] In contrast, by quantitative western blot analysis, protein levels of ER/SR components (SERCA2, calreticulin, calsequestrin), K+ channels or associated subunits (KCNQ1/KvLQT1, ERG1, MinK/IsK, Kir2.1/IRK1, Kir2.3/IRK3), RyR2, plasma membrane Ca^+2 channels (DHPR, PMCA2), and structural proteins (α-actinin, dystrophin) are unaffected (FIG. 30C).

[2] = system: adult AnkB+/− and control ventricular cardiomyocytes; assay: Action potential recordings in isolated adult ventricular cardiomyocytes with isoproterenol; format: cell-based, mouse; conditions: for extrasystoles in action potentials after acute isoproterenol: isoproterenol (1 μM); for myocytes with DADs and EADs: isoproterenol
Protocol: Patch clamp methods. AnkB+/− and +/+ animals (1–3 months of age) were sacrificed by IP injection of pentobarbital sodium (100 mg/kg). Single myocytes were isolated (Santana et al, J. Physiol. 503:21 (1997)). Axopatch-200A or -200B amplifier (Axon Instruments) was used to measure membrane currents (Santana et al, J. Physiol. 503:21(1997), Santana et al, Science 279:1027 (1998)). Patch pipette (1–3 MOhm) solution (mM): CsCl (130); NaCl (10); MgATP (5); Hepes (10), MgCl2 (1) PH 7.2 (with CsOH). Superfusion solution 1: (mM) NaCl (140), KCl (5) MgCl2 (0.5), CaCl2 (1.8), NaH2PO4 (0.33), glucose (5.5) and HEPES (5); pH 7.4 at 35–37° C. Solution 2 was same as solution 1 but with CsCl substituted for KCl. After conversion to whole cell, voltage clamp in solution (1), solution (2) was used to measure ICa. Test depolarizations followed four 50 ms depolarizations to 0 mV at 1 Hz. A 500 ms ramp-depolarization from […] to 40 mV was followed by a 50 ms period at 40 mV before test depolarizations.
AP recordings. Myocytes were superfused with Solution 1. β adrenergic stimulation of cells produced by the addition of 1 μM isoproterenol to solution 1. Pipette filling solution as above, except KCl was substituted for CsCl (pH 7.2 with KOH). Axopatch 200A was used in current clamp mode to record AP. Current injections triggered AP at constant rate (1 Hz, 5 Hz). All experiments were performed at 37° C.

[3] = system: (+/+) and AnkB (+/−) mice; assay: Insulin-tolerance test, blood glucose; format: in vivo, mouse; conditions: 5 units/kg intraperitoneal, 120 min
Protocol: as §1

IP3R = assay: [3H]IP3 binding assay and Scatchard analysis, cardiac muscle microsomes; set-up: species or system mouse; conditions: for Kd: n=5
Protocol: IP3 Binding Experiments. Cardiac membranes were prepared and labeled with increasing concentrations (5–40 nM) of [^3H] IP3 (Amersham) essentially as described (Perez et al, J. Biol. Chem. 272:23961 1997)). Assays were performed in triplicate, and at each IP3 concentration, non-specific binding was assessed in the presence of 1 μM unlabeled IP3 (ICN).

Compound: endothelin-1 (CSCSSLMDKECVYFCHLDIIW; ends and bridges not checked; cysteine pairing not given here; UniProt P05305 53-73, looked up) [signals via a Gαq-coupled receptor]
heart rate response to endothelin-1 ([1]; ankyrin-B (+/−) mice): significantly reduced; also recorded: does not reach the same levels as the wildtype
heart rate response to endothelin-1 ([1]; wildtype animals): significant decrease in heart rate

Compound: CC(C)NCC(O)COc1cccc2ccccc12 (stereo not drawn) [propanolol]
heart rate response to propanolol ([1]; wildtype and ankyrin-B heterozygote mice): typical decreases in heart rate which were not significantly different

Compound: CNC[C@H](O)c1ccc(O)c(O)c1 [epinephrine]
mice that became unresponsive or died (AnkB+/− and +/+ mice; +/+ mice): 0/6
mice that died following exercise combined with epinephrine (AnkB+/− and +/+ mice; AnkB+/− mice): 8/14
time to polymorphic ventricular arrhythmias after EPI (AnkB+/− and +/+ mice; AnkB+/− mouse, exercise and epinephrine): ~17 min

Compound: C[C@@H]1O[C@@H](O[C@H]2C[C@@H](O)[C@]3(CO)[C@H]4[C@H](O)C[C@]5(C)[C@@H](C6=CC(=O)OC6)CC[C@]5(O)[C@@H]4CC[C@]3(O)C2)[C@H](O)[C@H](O)[C@H]1O [ouabain]
reduction in [3H]ouabain binding capacity (Na/K ATPase; AnkB+/− heart vs +/+): 16%
affinity for ligand, AnkB+/− vs +/+ (Na/K ATPase; adult cardiac microsomes): unchanged

myocytes with DADs and EADs ([2]; AnkB+/− myocytes, 1 and 5 Hz): 36%
extrasystoles in action potentials after acute isoproterenol ([2]; control cells): did not
myocytes with DADs and EADs ([2]; control myocytes): no control myocytes
Compound: CC(C)NCC(O)c1ccc(O)c(O)c1 (stereo not drawn) [isoproterenol]
extrasystoles in action potentials after acute isoproterenol ([2]; AnkB+/− cardiomyocytes): developed spontaneous extrasystoles at both 1 and 5 Hz
heart rate response to isoproterenol ([1]; wildtype and ankyrin-B (+/−) mice, 50 mg/kg): responsed equally

Compound: insulin
blood glucose after insulin injection ([3]; (+/+) mice): decline following the insulin injection and return to near normal levels by the end of the 120 min period
blood glucose after insulin injection ([3]; AnkB (+/−) mice): significant reduction in blood glucose levels

Compound: O=P(O)(O)O[C@@H]1[C@H](O)[C@H](O)[C@@H](OP(=O)(O)O)[C@H](OP(=O)(O)O)[C@H]1O [IP3, inositol 1,4,5-triphosphate]
Bmax, IP3 binding capacity (IP3R; (+/+) cardiac muscle): 0.083 pmol/mg
Kd (IP3R; (+/+) cardiac muscle): 24 nM
Bmax, IP3 binding capacity (IP3R; AnkB (+/−) cardiac muscle): 0.056 pmol/mg
Kd (IP3R; AnkB (+/−) cardiac muscle): 25 nM
reduction in IP3 binding capacity (IP3R; AnkB (+/−) vs wildtype heart): 33%
affinity for ligand, AnkB+/− vs +/+ (IP3R; adult cardiac microsomes): unchanged

Compound: CNC[C@H](O)c1cccc(O)c1 [phenylephrine]
heart rate response to phenylephrine ([1]; ankyrin-B (+/−) mice, 3 mg/kg): significant decreased heart rate sensitivity; also recorded: does not reach the same minimum levels as the wildtype
maximal decrease in heart rate after phenylephrine during beta blockade ([1]; ankyrin-B heterozygous mice, propanolol injected prior to phenylephrine): ~50 % of the wildtype response
heart rate response to phenylephrine ([1]; wildtype mice, 3 mg/kg intraperitoneal): rapid decrease in heart rate
